Assay results reported in PMC8146289, “Tissue Distribution of Oleocanthal and Its Metabolites after Oral Ingestion in Rats” (Antioxidants, 2021).

What was measured:
[1] = set-up: method as in PMID 33348608; conditions: in vivo, rats; cited from earlier work
[2] = set-up: method as in doi:10.1016/j.foodchem.2009.07.017; conditions: cited from earlier work
[3] = Tissue distribution of OLC and its metabolites in rats after oral gavage of OLC-enriched refined olive oil (LC-ESI-LTQ-Orbitrap-MS); format: in vivo, Male Sprague Dawley rats; conditions: for plasma and tissues in which the compound was detected: liver, kidney, spleen, lungs, heart, brain, thyroid, skin, 1, 2, 4.5 h after oral ROO with OLC; for decrease of OLC concentration in the intestine / decrease of OLC concentration in the stomach: relative to the maximum at 1 h; for decrease of OLC concentration in the stomach: stomach samples
Procedure: The studies were conducted following a protocol approved by the Animal Experimentation Ethics Committee of the University of Barcelona, Spain (trial no. CEEA 124/16) and Generalitat de Catalunya (no. 6435). Male Sprague Dawley rats (body weight 249 ± 8 g) were purchased from Envigo RMS Spain S.L. (Sant Feliu de Codines, Barcelona, Spain). The animals were acclimatized in animal housing in an air-conditioned room at 22 ± 2 °C under a 12 h/12 h cycle of light and darkness and given free access to a commercial diet (Teklad 2014, Envigo RMS Spain S.L.) and water for at least 10 days before the study. The rats were fasted for over 12 h before the experiments but were allowed free access to water.
Before the distribution experiment, the ROO (vehicle) was analyzed by LC-ESI-LTQ-Orbitrap-MS to make sure it was free of phenolic compounds. The liquid–liquid extraction of phenolic compounds of ROO was performed following the previously described procedures. The chromatographic and mass spectrometer conditions were the same as those used for the identification of metabolites (Section 2.3). After verifying that the ROO was free of phenols, OLC was added to obtain a final concentration of 0.3 mg/mL. The OLC concentration was chosen while taking into account both the OLC concentration in commercial EVOO (~300 mg/kg) and the daily ingestion of EVOO recommended by the European Food Safety Authority of at least 5 mg of hydroxytyrosol and its derivatives per 20 g of olive oil.
The rats were divided into four groups—a control group (no administration) and three dosed groups—to study the distribution of OLC at three different time points: 1, 2 and 4.5 h post-administration. On treatment day, the rats received the ROO containing OLC by oral gavage (2.5 mL/300 g body weight). The volume for gavage administration was established following a good practice guide for substance administration and was lower than the maximum volume of lipid vehicles per kg of rat body weight that prevented elevated plasma corticosterone levels.
The rats were anesthetized with isoflurane (IsoFloR, Veterinaria Esteve, Barcelona, Spain) and euthanized by exsanguination via cardiac puncture at 1, 2 or 4.5 h after ROO ingestion. The control group was maintained under fasting conditions without olive oil ingestion and then similarly euthanized. The blood was collected in EDTA tubes, and plasma samples were obtained by centrifugation (3000× g for 10 min at 4 °C) and stored at −80 °C until analysis. Different tissues and organs (heart, liver, spleen, lungs, kidney, brain, thyroid, stomach, small intestine and skin) were removed from the rats and placed in pre-weighed tubes. The small intestine samples consisted of a pool of duodenum, jejunum and ileum segments, but the main region used was the jejunum. The procedure was to locate the plica duodenocolica and, from there up to about 5 cm of the intestine before reaching the cecum, to remove it from the animal. The collected tissues were washed with physiological serum at 37 °C and placed between absorbent paper to remove the rest of the serum. In the case of the intestine, the luminal contents were first removed by applying pressure with the index finger and thumb, and then the lumen was washed by perfusing with the physiological serum at 37 °C. It was then placed between absorbent paper to remove the remains of the washings. In order to avoid compound oxidation, the collected tissues were kept on ice at all times. Finally, the samples were weighed and stored at −80 °C until analysis. For each group, four animals were used.
The tissues were homogenized with a small tissue disruptor (T 10 basic ULTRA-TURRAX®, IKA laboratory technology, Staufen Germany) in a 1:1 ratio (w/v) with water:ACN (1:1 (v/v) with 0.1% ascorbic acid). The samples were sonicated for 5 min in an ice bath and shaken for 1 min (Vortex-Genie 2). Each homogenate was centrifuged for 10 min (11,000× g at 4 °C). […]

[4] = plasma, stomach, small intestine

detection in plasma ([3]; plasma) | time of Cmax (highest concentration among the three sample times 1, 2, 4.5 h) ([3]; small intestine) | decrease of OLC concentration in the intestine ([3]; small intestine, 2 h post-ingestion) | decrease of OLC concentration in the intestine ([3]; small intestine, 4.5 h post-ingestion) | time of Cmax (highest concentration among the three sample times 1, 2, 4.5 h) ([3]; stomach) | decrease of OLC concentration in the stomach ([3]; 2 h post-ingestion, ROO with 0.3 mg/mL OLC by oral gavage 2.5 mL/300 g body weight) | decrease of OLC concentration in the stomach ([3]; 4.5 h post-ingestion) | SMILES | intestinal absorption [1] | concentration in the aqueous phase (partition between the oily and aqueous phase) ([2]; digestion of dietary lipids, lipid–water emulsion) | stability in the gastric phase ([2]; in vitro digestion study) | plasma and tissues in which the compound was detected [3, 4]
not found in the plasma | 1 h | 16% | 33% | 1 h | 36% | 74% | C/C=C(/C=O)[C@@H](CC=O)CC(=O)OCCc1ccc(O)cc1 [OLC, oleocanthal] | 16% | 68.7% | good OLC stability in the gastric phase | only detected in the stomach and small intestine samples
– | 1 h | – | – | 1 h | – | – | OCCc1ccc(O)cc1 [TY, tyrosol] | – | – | – | only detected in the stomach and intestinal samples
